The test concerns the target telomerase enzyme (Homo sapiens, UniProt O14746). The test can be described thus: Flash Plate-based telomerase assay. As to conditions: telomerase inhibition, two hours of incubation. The format is biochemical. The text has this:
The telomerase activity of the compounds of the invention has been evaluated using a Flash Plate-based assay. […] Other methods for determining the inhibitory concentration of a compound of the invention against telomerase can be employed as will be apparent to a person skilled in the art based on the disclosure herein.
Briefly, the assay mixture is costituted by:
telomerase enzyme diluted in a buffer, the composition of which has been selected to maintain the enzyme activity stable along the duration of the assay.
dNTPs, deoxynucleotides 5′-triphosphate.
biotynilated oligo as primer.
increasing concentrations of test compounds/positive control.
After two hours of incubation at […] the telomeric repeats added are evaluated by hybridization in solution with a 3′-labeled short oligonucleotide probe.
The extent of hybridization is then quantitated by transferring the reaction mixture in a streptavidin-coated flash plate, where the binding between biotin and streptavidin occurs.
The telomerase activity is proportional to the radioactivity measured and the inhibitory activity of the compounds is evaluated as IC50 using the Sigma Plot fit program.
With the above-described method, IC50 values of the compounds of the present invention were determined.

SMILES strings stand for the structures. pIC50: −log10 of the molar value.

telomerase enzyme, sequence (O14746 whole entry): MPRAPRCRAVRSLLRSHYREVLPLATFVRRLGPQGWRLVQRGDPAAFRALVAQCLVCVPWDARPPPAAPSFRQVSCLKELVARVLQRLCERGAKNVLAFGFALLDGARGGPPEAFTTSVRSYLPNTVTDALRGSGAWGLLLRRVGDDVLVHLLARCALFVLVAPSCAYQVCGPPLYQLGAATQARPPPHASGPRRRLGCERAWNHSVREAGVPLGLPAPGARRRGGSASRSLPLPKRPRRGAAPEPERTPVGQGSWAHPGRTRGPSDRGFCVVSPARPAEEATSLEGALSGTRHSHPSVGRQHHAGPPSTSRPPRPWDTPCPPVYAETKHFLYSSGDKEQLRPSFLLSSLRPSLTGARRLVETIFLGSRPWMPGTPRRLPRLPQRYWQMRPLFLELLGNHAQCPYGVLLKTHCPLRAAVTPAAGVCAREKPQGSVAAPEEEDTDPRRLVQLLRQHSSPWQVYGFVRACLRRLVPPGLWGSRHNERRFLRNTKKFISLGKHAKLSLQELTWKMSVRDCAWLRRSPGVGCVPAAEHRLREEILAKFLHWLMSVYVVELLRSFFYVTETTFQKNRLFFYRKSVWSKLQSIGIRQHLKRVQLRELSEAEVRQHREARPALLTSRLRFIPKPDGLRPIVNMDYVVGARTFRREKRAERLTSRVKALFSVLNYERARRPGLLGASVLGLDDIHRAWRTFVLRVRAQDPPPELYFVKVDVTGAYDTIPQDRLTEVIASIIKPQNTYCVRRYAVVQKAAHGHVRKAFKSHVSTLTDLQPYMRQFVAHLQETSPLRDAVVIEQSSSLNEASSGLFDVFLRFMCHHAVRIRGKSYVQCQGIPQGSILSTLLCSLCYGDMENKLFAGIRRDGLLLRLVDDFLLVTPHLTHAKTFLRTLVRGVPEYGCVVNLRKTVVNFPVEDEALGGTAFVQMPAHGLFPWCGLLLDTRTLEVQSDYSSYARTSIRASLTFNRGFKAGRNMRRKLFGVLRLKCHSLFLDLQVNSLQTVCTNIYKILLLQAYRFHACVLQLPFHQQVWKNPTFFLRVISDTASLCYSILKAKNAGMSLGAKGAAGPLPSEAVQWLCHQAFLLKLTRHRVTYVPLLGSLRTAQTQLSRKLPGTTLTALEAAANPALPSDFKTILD

One may read the pIC50 as the negative decadic logarithm of the IC50, by convention in mol/L. A low value points to a high IC50. Turning to `COC(=O)c1ccc(Cn2c(N)nc3ncn(Cc4ccc(C(=O)OC)cc4)c3c2=O)cc1` [compound 13, methyl 4-({2-amino-7-[4-(methoxycarbonyl)benzyl]-6-oxo-6,7-dihydro-1H-purin-1-yl}methyl) benzoate], the pIC50 is 4.91.
